From patent US10106538B2, “Inhibitors of protein kinases” (PRINCETON DRUG DISCOVERY INC, priority 2015, dated 2018)

Legend:
Experiment in all cases: Off-chip Mobility Shift Assay (MSA) kinase inhibition
Type in all cases: biochemical
[1] = molecular target: T1, ALK (Homo sapiens, UniProt Q9UM73); details: for inhibition at 0.1 µM: inhibitor concentration 0.1 μM
T1 construct: purchased Carna Biosciences
Experimental: (§1) Off-chip Mobility Shift Assay (MSA) by Cama Biosciences, Inc (Natick, Mass.) a used for measuring the kinase activity and inhibition. • 1) The 5 μL of x4 compound solution, 5 μL of x4 Substrate/ATP/Metal solution, and 10 μL of x2 kinase solution were prepared with assay buffer (20 mM HEPES, 0.01% Triton X100, 2 mM DTT, pH 7.5) and mixed and incubated in a well of polypropylene 384 well microplate for 1 or 5 hour(s)* at room temperature.

[2] = molecular target: T2, KIT (Homo sapiens, UniProt P10721); details: for inhibition at 0.1 µM: inhibitor concentration 0.1 μM
T2 construct: purchased Carna Biosciences
Experimental: as §1

[3] = molecular target: T3, JAK2 (Homo sapiens, UniProt O60674); details: for inhibition at 0.1 µM: inhibitor concentration 0.1 μM
T3 construct: purchased Carna Biosciences
Experimental: as §1

[4] = molecular target: T4, BRAF(V600E) (Homo sapiens, UniProt P15056, V600E)
T4 construct: purchased Carna Biosciences
Experimental: as §1

[5] = molecular target: T5, MET (Homo sapiens, UniProt P08581); details: for inhibition at 0.1 µM: inhibitor concentration 0.1 μM
T5 construct: purchased Carna Biosciences
Experimental: as §1

[6] = molecular target: T6, JAK3 (Homo sapiens, UniProt P52333); details: for inhibition at 0.1 µM: inhibitor concentration 0.1 μM
T6 construct: purchased Carna Biosciences
T6 sequence (P52333 1-1124): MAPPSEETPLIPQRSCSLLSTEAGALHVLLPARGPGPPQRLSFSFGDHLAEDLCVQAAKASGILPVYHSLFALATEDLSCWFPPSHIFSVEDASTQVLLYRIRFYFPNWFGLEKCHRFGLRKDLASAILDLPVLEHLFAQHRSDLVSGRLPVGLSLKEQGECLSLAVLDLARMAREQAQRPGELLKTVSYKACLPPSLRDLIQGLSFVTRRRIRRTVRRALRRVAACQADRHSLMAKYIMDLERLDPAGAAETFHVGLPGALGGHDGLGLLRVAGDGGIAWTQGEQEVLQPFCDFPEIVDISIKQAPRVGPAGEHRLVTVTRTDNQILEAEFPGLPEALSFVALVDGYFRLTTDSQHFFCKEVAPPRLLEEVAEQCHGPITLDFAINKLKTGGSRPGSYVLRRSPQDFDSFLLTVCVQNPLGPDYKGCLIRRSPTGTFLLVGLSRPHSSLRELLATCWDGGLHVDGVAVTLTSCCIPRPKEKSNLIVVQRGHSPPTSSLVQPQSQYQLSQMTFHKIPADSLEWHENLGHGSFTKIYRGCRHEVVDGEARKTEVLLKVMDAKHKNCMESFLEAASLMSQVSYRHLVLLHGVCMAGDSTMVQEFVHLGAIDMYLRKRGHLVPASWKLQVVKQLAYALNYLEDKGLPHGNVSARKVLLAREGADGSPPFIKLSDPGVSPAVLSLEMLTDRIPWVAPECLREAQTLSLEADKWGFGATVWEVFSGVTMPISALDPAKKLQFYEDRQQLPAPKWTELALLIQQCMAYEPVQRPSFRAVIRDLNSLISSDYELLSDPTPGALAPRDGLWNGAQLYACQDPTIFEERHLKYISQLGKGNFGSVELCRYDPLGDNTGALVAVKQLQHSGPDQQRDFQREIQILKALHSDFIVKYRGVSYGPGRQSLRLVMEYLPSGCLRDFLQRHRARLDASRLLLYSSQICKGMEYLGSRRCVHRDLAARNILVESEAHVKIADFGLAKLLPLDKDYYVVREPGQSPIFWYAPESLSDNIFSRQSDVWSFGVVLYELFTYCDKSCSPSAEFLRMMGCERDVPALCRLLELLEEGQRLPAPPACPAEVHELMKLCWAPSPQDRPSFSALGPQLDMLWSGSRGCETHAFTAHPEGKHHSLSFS
Experimental: as §1

[7] = molecular target: T7, SRC (Homo sapiens, UniProt P12931); details: for inhibition at 0.1 µM: inhibitor concentration 0.1 μM
T7 construct: purchased Carna Biosciences
Experimental: as §1

[8] = molecular target: T8, EGFR (Homo sapiens, UniProt P00533); details: for inhibition at 0.1 µM: inhibitor concentration 0.1 μM
T8 construct: purchased Carna Biosciences
Experimental: as §1

[9] = molecular target: T9, RAF1 (Homo sapiens, UniProt P04049); details: for inhibition at 0.1 µM: inhibitor concentration 0.1 μM
T9 construct: purchased Carna Biosciences
Experimental: as §1

[10] = molecular target: T10, HER2 (Homo sapiens, UniProt P04626); details: for inhibition at 0.1 µM: inhibitor concentration 0.1 μM
T10 construct: purchased Carna Biosciences
Experimental: as §1

[11] = molecular target: T11, IGF1R (Homo sapiens, UniProt P08069); details: for inhibition at 0.1 µM: inhibitor concentration 0.1 μM
T11 construct: purchased Carna Biosciences
Experimental: as §1

[12] = molecular target: T12, ROS (Homo sapiens, UniProt P08922); details: inhibitor concentration 0.1 μM
T12 construct: purchased Carna Biosciences
Experimental: as §1

[13] = molecular target: T13, ABL(E255K) (Homo sapiens, UniProt P00519, E255K); details: inhibitor concentration 0.1 μM
T13 construct: purchased Carna Biosciences
Experimental: as §1

[14] = molecular target: T14, FAK (Homo sapiens, UniProt Q05397); details: inhibitor concentration 0.1 μM
T14 construct: purchased Carna Biosciences, Inc
Experimental: as §1

[15] = molecular target: T15, PIM1 (Homo sapiens, UniProt P11309); details: inhibitor concentration 0.1 μM
T15 construct: purchased Carna Biosciences
Experimental: as §1

[16] = molecular target: T16, BMX (Homo sapiens, UniProt P51813); details: inhibitor concentration 0.1 μM
T16 construct: purchased Carna Biosciences
T16 sequence (P51813 1-675): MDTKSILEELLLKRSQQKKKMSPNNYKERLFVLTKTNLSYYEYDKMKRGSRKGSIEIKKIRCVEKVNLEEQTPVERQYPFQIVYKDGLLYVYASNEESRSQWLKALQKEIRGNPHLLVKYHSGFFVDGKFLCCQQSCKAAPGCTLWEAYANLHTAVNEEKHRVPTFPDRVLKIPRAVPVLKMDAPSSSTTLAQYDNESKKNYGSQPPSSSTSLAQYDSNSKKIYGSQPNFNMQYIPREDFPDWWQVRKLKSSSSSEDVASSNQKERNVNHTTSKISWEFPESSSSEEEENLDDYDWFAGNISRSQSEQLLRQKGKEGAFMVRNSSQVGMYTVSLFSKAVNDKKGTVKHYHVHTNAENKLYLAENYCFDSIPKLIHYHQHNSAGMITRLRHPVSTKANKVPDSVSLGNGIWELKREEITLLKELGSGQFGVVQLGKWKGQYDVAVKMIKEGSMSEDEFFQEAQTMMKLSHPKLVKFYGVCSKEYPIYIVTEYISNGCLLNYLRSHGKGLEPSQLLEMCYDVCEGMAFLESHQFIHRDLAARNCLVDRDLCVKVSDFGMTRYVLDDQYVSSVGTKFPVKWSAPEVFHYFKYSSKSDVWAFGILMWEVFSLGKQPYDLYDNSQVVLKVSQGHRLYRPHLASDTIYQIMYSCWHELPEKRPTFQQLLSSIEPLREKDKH
Experimental: as §1

[17] = inhibitor concentration 0.01 μM
[18] = inhibitor concentration 0.01 μM, 0.01 µM

T4 sequence (P15056 whole entry V600E): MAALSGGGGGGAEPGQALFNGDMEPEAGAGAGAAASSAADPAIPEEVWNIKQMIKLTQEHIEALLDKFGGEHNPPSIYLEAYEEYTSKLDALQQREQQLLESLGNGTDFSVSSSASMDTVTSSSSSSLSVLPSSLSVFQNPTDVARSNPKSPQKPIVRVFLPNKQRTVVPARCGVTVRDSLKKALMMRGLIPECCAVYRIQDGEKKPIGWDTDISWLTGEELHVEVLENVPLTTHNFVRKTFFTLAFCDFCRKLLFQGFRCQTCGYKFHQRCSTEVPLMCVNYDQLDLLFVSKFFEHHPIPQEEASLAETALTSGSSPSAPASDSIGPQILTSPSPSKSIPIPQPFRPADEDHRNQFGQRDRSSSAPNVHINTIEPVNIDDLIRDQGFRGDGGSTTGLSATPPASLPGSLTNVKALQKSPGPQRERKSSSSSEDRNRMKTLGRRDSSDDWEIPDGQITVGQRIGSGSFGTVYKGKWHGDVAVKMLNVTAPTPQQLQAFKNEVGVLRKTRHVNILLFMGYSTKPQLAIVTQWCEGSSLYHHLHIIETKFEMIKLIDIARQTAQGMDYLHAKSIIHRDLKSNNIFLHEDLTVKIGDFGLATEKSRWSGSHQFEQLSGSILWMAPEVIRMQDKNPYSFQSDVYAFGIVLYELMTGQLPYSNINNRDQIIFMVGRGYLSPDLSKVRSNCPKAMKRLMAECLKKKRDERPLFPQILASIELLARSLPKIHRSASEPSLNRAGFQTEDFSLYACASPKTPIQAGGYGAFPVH
T14 sequence (Q05397 whole entry): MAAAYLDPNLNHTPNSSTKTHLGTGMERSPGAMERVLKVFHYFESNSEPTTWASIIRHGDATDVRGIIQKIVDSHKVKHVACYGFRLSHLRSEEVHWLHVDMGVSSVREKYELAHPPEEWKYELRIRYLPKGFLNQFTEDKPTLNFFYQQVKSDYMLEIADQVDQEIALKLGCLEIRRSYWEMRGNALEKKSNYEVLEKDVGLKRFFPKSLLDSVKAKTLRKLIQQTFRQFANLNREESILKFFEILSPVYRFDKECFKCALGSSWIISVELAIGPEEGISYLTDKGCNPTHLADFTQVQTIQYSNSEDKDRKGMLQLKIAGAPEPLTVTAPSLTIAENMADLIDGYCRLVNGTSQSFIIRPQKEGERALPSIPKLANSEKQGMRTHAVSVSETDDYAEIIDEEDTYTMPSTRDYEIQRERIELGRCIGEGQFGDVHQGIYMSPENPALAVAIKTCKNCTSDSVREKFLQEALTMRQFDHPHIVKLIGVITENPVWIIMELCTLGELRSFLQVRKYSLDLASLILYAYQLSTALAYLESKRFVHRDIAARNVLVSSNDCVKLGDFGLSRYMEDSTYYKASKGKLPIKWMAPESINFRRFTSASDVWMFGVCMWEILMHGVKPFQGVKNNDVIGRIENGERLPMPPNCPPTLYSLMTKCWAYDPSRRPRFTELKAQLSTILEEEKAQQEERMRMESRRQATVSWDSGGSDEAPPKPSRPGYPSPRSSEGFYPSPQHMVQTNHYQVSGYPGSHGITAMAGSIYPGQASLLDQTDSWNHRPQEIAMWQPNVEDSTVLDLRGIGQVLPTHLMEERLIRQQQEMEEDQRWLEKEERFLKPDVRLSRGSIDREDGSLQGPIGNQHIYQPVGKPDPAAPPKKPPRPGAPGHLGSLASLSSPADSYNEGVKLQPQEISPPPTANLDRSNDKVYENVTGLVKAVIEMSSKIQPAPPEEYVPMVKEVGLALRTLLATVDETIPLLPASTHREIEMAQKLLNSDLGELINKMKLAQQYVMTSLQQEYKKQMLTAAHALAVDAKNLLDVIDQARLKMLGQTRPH
T8 sequence (P00533 25-1210): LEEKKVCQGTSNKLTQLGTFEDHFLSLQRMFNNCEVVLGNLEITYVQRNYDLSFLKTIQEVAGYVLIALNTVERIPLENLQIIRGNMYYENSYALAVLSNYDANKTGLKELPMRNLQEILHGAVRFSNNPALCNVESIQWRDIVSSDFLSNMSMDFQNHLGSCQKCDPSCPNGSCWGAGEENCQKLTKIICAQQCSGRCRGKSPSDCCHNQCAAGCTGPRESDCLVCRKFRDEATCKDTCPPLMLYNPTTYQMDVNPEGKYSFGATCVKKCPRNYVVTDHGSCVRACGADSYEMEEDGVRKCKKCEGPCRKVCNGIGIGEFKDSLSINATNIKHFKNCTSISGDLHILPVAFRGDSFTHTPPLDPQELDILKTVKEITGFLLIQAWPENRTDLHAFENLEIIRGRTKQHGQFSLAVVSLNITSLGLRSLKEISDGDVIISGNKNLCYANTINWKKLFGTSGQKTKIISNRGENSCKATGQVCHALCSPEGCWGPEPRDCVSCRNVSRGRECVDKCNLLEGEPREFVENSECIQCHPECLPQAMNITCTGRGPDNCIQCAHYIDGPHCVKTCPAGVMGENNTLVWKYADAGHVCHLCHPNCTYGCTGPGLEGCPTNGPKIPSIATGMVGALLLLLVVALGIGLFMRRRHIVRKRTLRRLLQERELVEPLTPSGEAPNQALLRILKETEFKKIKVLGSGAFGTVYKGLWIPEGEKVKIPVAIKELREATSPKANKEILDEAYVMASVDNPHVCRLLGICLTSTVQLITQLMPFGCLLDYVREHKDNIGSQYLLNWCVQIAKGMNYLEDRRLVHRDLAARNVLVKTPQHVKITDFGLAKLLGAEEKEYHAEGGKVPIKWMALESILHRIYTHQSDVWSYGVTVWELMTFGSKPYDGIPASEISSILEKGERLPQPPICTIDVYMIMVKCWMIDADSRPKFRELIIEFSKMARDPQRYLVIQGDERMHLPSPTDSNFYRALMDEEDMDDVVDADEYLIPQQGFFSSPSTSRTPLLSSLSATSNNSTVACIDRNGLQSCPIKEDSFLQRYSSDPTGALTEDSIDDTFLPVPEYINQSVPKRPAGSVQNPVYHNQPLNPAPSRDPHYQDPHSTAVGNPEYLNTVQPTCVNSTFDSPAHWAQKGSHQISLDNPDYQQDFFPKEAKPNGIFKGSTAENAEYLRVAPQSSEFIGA
T1 sequence (Q9UM73 19-1620): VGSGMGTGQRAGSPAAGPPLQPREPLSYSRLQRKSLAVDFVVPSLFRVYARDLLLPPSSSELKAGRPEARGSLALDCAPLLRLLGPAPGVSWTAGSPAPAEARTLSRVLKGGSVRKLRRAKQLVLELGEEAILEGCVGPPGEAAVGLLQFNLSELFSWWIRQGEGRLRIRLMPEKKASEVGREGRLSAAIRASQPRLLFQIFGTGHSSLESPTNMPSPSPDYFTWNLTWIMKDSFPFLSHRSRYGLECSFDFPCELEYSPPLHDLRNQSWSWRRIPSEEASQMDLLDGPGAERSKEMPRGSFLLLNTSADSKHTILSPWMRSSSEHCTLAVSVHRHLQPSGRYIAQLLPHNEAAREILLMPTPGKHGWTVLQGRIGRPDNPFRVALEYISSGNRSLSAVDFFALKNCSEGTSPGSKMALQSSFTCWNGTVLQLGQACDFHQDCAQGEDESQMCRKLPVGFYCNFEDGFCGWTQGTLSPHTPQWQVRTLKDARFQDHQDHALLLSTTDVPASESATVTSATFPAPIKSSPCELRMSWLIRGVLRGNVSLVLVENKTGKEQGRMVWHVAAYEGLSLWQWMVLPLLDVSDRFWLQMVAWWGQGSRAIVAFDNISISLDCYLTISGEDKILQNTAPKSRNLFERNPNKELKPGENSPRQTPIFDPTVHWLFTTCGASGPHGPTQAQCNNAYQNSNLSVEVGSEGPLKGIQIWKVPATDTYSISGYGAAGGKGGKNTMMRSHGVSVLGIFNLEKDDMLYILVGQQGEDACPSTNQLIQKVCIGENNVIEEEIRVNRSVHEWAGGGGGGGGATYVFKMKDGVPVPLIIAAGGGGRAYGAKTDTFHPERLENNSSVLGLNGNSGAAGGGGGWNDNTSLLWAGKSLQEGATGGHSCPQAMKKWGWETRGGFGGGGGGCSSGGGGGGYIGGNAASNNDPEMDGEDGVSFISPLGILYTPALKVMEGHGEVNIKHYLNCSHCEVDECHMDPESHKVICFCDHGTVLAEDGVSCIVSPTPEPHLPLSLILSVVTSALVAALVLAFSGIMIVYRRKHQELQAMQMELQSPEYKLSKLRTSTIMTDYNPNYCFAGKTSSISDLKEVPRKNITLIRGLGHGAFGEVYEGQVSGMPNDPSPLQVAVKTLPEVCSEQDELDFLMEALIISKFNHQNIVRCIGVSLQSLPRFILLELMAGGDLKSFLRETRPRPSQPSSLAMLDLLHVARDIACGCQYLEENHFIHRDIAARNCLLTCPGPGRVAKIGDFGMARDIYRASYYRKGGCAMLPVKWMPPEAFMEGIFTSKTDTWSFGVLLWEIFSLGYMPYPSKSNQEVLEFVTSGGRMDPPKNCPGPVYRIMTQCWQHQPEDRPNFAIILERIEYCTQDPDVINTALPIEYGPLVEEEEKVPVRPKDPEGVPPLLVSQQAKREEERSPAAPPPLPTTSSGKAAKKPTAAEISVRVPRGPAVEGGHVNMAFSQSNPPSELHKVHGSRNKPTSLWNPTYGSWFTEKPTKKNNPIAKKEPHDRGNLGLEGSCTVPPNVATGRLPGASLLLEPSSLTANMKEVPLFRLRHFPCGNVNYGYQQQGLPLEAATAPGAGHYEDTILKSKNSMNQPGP
T15 sequence (P11309 whole entry): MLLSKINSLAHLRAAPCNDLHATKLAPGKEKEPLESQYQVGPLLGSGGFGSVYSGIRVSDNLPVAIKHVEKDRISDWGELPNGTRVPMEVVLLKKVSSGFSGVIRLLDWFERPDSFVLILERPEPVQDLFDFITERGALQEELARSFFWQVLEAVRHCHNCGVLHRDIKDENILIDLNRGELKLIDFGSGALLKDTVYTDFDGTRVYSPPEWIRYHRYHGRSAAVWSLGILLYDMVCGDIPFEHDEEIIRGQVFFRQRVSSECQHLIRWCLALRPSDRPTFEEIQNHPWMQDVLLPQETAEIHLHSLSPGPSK

SMILES | inhibition at 0.1 µM [2] [%] | inhibition at 0.1 µM [3] [%] | inhibition at 0.1 µM [6] [%] | inhibition at 0.1 µM [7] [%] | inhibition at 0.1 µM [1] [%] | inhibition at 0.1 µM [12] [%] | inhibition at 0.1 µM [5] [%] | inhibition at 0.1 µM [13] [%] | inhibition at 0.1 µM [14] [%] | inhibition at 0.1 µM [15] [%] | inhibition at 0.1 µM [8] [%] | inhibition at 0.1 µM [9] [%] | inhibition at 0.1 µM [10] [%] | inhibition at 0.1 µM [16] [%] | inhibition at 0.1 µM [11] [%] | further results
O=C(c1c(F)ccc(NS(=O)(=O)CCCO)c1F)c1c[nH]c2ncc(-c3ccc(Cl)cc3)cc12 [200-17, N-[3-[5-(4-chlorophenyl)-1H-pyrrolo[2,3-b]pyridine-3-carbonyl]-2,4-difluorophenyl]-3-hydroxypropane-1-sulfonamide] | > 50 | > 50 | < 50 | > 50 |  |  |  |  |  |  |  |  |  |  |  | inhibition at 1 µM ([1]; inhibitor concentration 1 μM): > 50%; inhibition at 0.01 µM [2, 17]: > 30%; inhibition at 1 µM ([2]; inhibitor concentration 1 μM): > 50%; inhibition at 0.01 µM [3, 17]: < 30%; inhibition at 1 µM ([3]; inhibitor concentration 1 μM): > 50%; inhibition at 1 µM ([4]; inhibitor concentration 1 μM): > 50%; inhibition at 1 µM ([5]; inhibitor concentration 1 μM): > 50%; inhibition at 0.01 µM [6, 17]: < 30%; inhibition at 1 µM ([6]; inhibitor concentration 1 μM): > 50%; inhibition at 0.01 µM [7, 17]: < 30%; inhibition at 1 µM ([7]; inhibitor concentration 1 μM): > 50%; inhibition at 1 µM ([8]; inhibitor concentration 1 μM): > 50%; inhibition at 1 µM ([9]; inhibitor concentration 1 μM): > 50%; inhibition at 1 µM ([10]; inhibitor concentration 1 μM): < 50%; inhibition at 1 µM ([11]; inhibitor concentration 1 μM): < 50%
CC(=O)CS(=O)(=O)Nc1ccc(F)c(C(=O)c2c[nH]c3ncc(-c4ccc(Cl)cc4)cc23)c1F [200-117] | < 30 | < 30 | < 30 | < 30 | < 30 | < 30 | < 30 | < 30 | < 30 | < 30 | < 30 | > 30 | < 30 | < 30 | < 30 | 
CC(O)CS(=O)(=O)Nc1ccc(F)c(C(=O)c2c[nH]c3ncc(-c4ccc(Cl)cc4)cc23)c1F (centres unmarked) [200-115] | < 30 | < 30 | < 30 | < 30 | < 30 | < 30 | < 30 | < 30 | < 30 | < 30 | < 30 | > 30 | < 30 | < 30 | < 30 | 
O=C(c1c(F)ccc(NS(=O)(=O)CC(O)CO)c1F)c1c[nH]c2ncc(-c3ccc(Cl)cc3)cc12 (stereo not drawn) [200-73, N-[3-[5-(4-chlorophenyl)-lH-pyrrolo [2,3-b]pyridine-3-carbonyl]-2,4-difluorophenyl]-2,3-dihydroxypropane-l-sulfonamide] | < 30 | < 30 | < 30 | < 30 | < 30 | < 30 | < 30 | < 30 | < 30 | < 30 | < 30 | > 30 | < 30 | < 30 | < 30 | inhibition at 0.1 µM ([4]; inhibitor concentration 0.1 μM): < 30%
C/C=C/S(=O)(=O)Nc1ccc(F)c(C(=O)c2c[nH]c3ncc(-c4ccc(Cl)cc4)cc23)c1F [200-93b] |  |  |  |  |  |  |  |  |  |  |  |  |  |  |  | KIT inhibition [2, 18]: <20%; JAK2 inhibition [3, 18]: <20%; BRAF(V600E) inhibition [4, 18]: <20%; JAK3 inhibition [6, 18]: <20%; SRC inhibition [7, 18]: <20%; RAF1 inhibition [9, 18]: >20%
